Patent US10010612B2 (Indivior UK Limited, priority 2007, dated 2018)

Key:
[1] = Risperidone release from ATRIGEL implants in rats (implant retrieval; 24-hour burst, 14-day and 28-day studies); assay type: in vivo, Sprague-Dawley rats; settings: 28 days
Protocol: The retrieved implants and tissue were placed in a −86° C. freezer for at least 1 hour. The frozen samples were lyophilized for at least 4 hours. The dry samples were minced with scissors, which were cleaned after each sample to minimize cross-contamination. The samples were minced until powder-like. Approximately 5 mL of 70:30 dimethylsulfoxide/methanol with 1% polyethyleneimine extraction solvent was added to each sample. The samples were mixed overnight at about 200 rpm at 37° C. on the orbital shaker. The samples were sonicated for 10 minutes. 1.5 mL of the extract was loaded into a 3 mL lure lock syringe and filtered through a 0.2 μm pore size filter into a clean test tube. 1 mL of the filtrate was placed into a clean test tube and 4 mL of 50:50 acetonitrile/H2O was added. The test tube was vortexed for 30 seconds. About 2 mL of the solution was loaded into a 3 mL lure lock syringe and filtered into an High Performance Liquid Chromatography vial.

[2] = Calculated risperidone release and plasma levels in dogs from in vitro release (in vitro to in vivo correlation); settings: suggested by calculated release and apomorphine data
[3] = limit of solubility
[4] = powder in polypropylene syringes, 5.8 to 31 KGy
Protocol: The eight formulations prepared for testing were sterilized in glass vials and gamma resistant polypropylene copolymer syringes using various dose levels of irradiation.
The dose level was 30 to 33 KGy for each of the samples.
Syringes and glass vials obtained from the gamma radiation testing were analyzed with the control formulations.
These were loaded into gamma-irradiation polypropylene syringes and capped.

With `Cc1nc2n(c(=O)c1CCN1CCC(c3noc4cc(F)ccc34)CC1)CCCC2` [Risperidone, 4-[2-[4-(6-fluorobenzo[d]isoxazol-3-yl)-1-piperidyl]ethyl]-3-methyl-2,6-diazabicyclo[4.4.0]deca-1,3-dien-5-one] the “stability of risperidone in ATRIGEL implants” value [1] was “stable in ATRIGEL® implants for 28 days”, the “minimum daily dose of risperidone needed in dogs for a biological response” value [2] was “about 0.6 mg” and the “solubility in N-methyl-2-pyrrolidone” value [3] was “up to 5 % by weight”. The “color after gamma irradiation” value [4] was “turned beige at the lowest level of irradiation”.
